Experimental data: patent US20230203095A1, “BIOLOGICAL PEPTIDE FOR TREATING LUNG DISEASES AND APPLICATION THEREOF” (SHANGHAI INSTITUTE OF PHARMACEUTICAL INDUSTRY CO., LTD., priority 2019, published 2023)
Square brackets hold non-standard residues; d marks the D form. Peptide text beside a SMILES is read from it.

System: serum IgE
Assay: Serum IgE level in OVA-induced allergic asthma model mice
Format: in vivo, BALB/c mice
Conditions: for Serum IgE level (OD450): days 19-28, n=10
Procedure: The first batch: mice were divided into groups, 10 mice in each group, namely: blank control group (normal saline), model group (OVA, 20 ug/mouse), SP peptide group (administered dose of 175 µg/kg body weight/day, 350 µg/kg body weight/day, respectively), SIPI-D00 peptide group (administered dose of 175 µg/kg body weight/day, 350 µg/kg body weight/day), and dexamethasone group (administered dose of 2 mg/kg body weight/day).
OVA for sensitization was dissolved in sterile PBS solution at a final concentration of 0.2 mg/mL, then an equal volume of aluminum hydroxide adjuvant was added. After shaking for 30 minutes, each mouse was intraperitoneally injected with 0.2 mL (20 µg OVA per mouse).
2% OVA solution was prepared in sterile PBS. The 2% OVA was nebulized with a nebulizer, and the mice were placed in the nebulizer inhalation box for 30 minutes per day.
According to the dosage, SP peptide and SIPI-D00 were dissolved in normal saline respectively, and administered by subcutaneous administration on the back according to the body weight of the animals.
Mice in the model group, SP peptide group, SIPI-D00 peptide group and dexamethasone group were sensitized by intraperitoneal injection of OVA (20 µg OVA/mice) on day 0, 7, and 14, and challenged by aerosol administration of OVA (once a day for 5 consecutive days) on day 21-25 to construct asthmatic model animals. Mice in the model group were given normal saline on days 21-28; mice in different doses of SP peptide group and SIPI-D00 peptide group were injected subcutaneously with different doses of SP and SIPI-D00 on days 19-28; mice in dexamethasone group were injected intraperitoneally with 2 mg/kg/day dexamethasone on days 21-28. At the same time, 10 mice in the blank control group were fed normally from day 0 to day 28 without any treatment, and were given normal saline as a blank control.
After 28 days, blood was collected from the inner canthus of the mouse, and the serum was collected, and the IgE level in the serum was measured with an ELISA kit. […]
At the same time, 10 mice in the blank control group were fed normally from day 0 to day 28 without any treatment, and were given normal saline as a blank control.

Compound: C[C@H](O)[C@@H](NC(=O)[C@@H](Cc1ccc(O)cc1)NC(=O)[C@H](NC(=O)[C@@H](CO)NC(=O)CN)[C@H](C)O)C(=O)N[C@H](CCC(N)=O)C(=O)NCC(=O)O [SIPI-D00, GSTYTQG] (H-G[dS][dT][dY][dT][dQ]G-OH)
- Serum IgE level (OD450) (175 ug/kg/day subcutaneous): 0.421 ± 0.044 OD450
- Serum IgE level (OD450) (350 ug/kg/day subcutaneous): 0.279 ± 0.036 OD450
- IgE level in the serum (in words) (compared with the model group and SP peptide group): significantly decreased
